From patent US5994396A, “Furansulfonic acid derivatives and pharmaceutical compositions containing the same” (priority 1998, dated 1999)
Where a name gives a salt, the structure may show the parent alone.

Legend:
[1] = tested on: interleukin-6 (IL-6) release, THP-1 cells; test: Reduction of LPS and β-amyloid-induced increased release of interleukin-6 in THP-1 cells (ELISA); assay type: cell-based; conditions: Homo sapiens, 100 μM test compound with LPS and Aβ(25-35), 48 hours, read-out: reduction of β-amyloid-induced increased release of interleukin-6 compared to the controls
Experimental: (§1) THP-1 cells, a human monocyte cell line from American Type Culture Collection, were grown in RPMI-1640 medium plus 10% fetal bovine serum (FBS, not heat-inactivated) in T-flasks. The medium was changed every two days by spinning down (800 rpm, 5 minutes) the cells, replating cells and adding fresh medium. Alternatively, the cultures were maintained by the addition of fresh medium. The cultures were maintained at a cell concentration ranging from between 1×10^5 and 1×10^6 cells/mL. Because sera may contain unknown factors which can affect macrophage/monocyte IL-1 production, the FBS was reduced to 5% for 24 hours. The FBS was further reduced to 2% over two days prior to starting each experiment. The cells were collected by centrifugation and resuspended into 2% FBS. Cell numbers were calculated and cells were plated on 24-well plates (3×10^5 cells/0.6 mL/well). Cells were then treated with LPS (0.5 μg/ml or 0-10 μg/ml for LPS dose-responseexperiments) alone or in combination with Aβ peptides (5 μM or 0.05-5 μM for dose-response experiments). When determining the effect of the test compounds on IL-1β, IL-6 and TNFα release, 100 μM of the test compound was added with the LPS and Aβ(25-35) and this mixture was incubated for 48 hours prior to performing ELISA.
(§2) IL-1β, IL-6 and TNFα secretions into medium by LPS-stimulated THP-1 cells, in the presence or absence of amyloid peptides and a test compound, were assayed with a commercially available ELISA kit (R & D Systems). Briefly, a microtiter plate coated with a murine monoclonal antibody to human IL-1β, IL-6, or TNFα was supplied by the manufacturer. Standards and samples were pipetted into the wells and any IL-1β, IL-6 or TNFα present was bound by the immobilized antibody. Unbound proteins were washed away and a horseradish peroxidase-linked polyclonal antibody specific for IL-1β, IL-6 or TNFα was added to the wells to "sandwich" the IL-1β, IL-6 and TNFα bound in the initial step. After washing to remove any unbound antibody-enzyme reagent, a substrate solution (1:1 hydrogen peroxide:tetramethylbenzidine, v/v) was added to the wells and color developed in proportion to the amount of IL-1β, IL-6 or TNFα bound in the initial step. Color development was stopped with 2 N sulfuric acid and the optical density of the standard and the test samples was measured at 450 nm. The amounts of IL-1β, IL-6 or TNFα present in the samples were calculated based upon a standard curve. Assays were run in quadruplicate wells.

[2] = tested on: interleukin-1β (IL-1β) release, THP-1 cells; test: Reduction of LPS and β-amyloid-induced increased release of interleukin-1β in THP-1 cells (ELISA); assay type: cell-based; conditions: Homo sapiens, 100 μM test compound with LPS and Aβ(25-35), 48 hours, read-out: reduction of β-amyloid-induced increased release of interleukin-1β compared to the controls
Experimental: as §1, §2

synthetic Aβ(1-40) = molecular target: T1, synthetic Aβ(1-40) (Homo sapiens, UniProt P05067); test: Inhibition of Aβ(1-40) beta-pleated sheet formation (thioflavin T fluorescence); assay type: biochemical; conditions: compound 10 μM; ThT 3 μM in PBS pH 6.0; Aβ(1-40) 3 μg; fluorescence increase over 12-24 hours; read-out: percent inhibition of Aβ(1-40) beta-pleated sheet formation compared to the controls
T1 construct: particularly the aggregated fibrils of synthetic Aβ(1-40)
Experimental: Thioflavin T (ThT) is known to rapidly associate with beta-pleated sheets, particularly the aggregated fibrils of synthetic Aβ(1-40). This association gives rise to a new excitation maximum at 440 nm and to enhanced emission at 490 nm.
The experiments were performed using a CytoFluor II fluorescence plate reader having the following parameters: […]
Into each well was aliquoted 95 μl of ThT (3 μM) prepared in PBS (pH 6.0), 2 μL of the compound to be tested (10 μM) prepared with 0.05% of methylcellulose in PBS (pH 6.0), and 3 μL of Aβ(1-40) (3 μg) prepared with dH2 O. The fluorescence measurement began when the Aβ(1-40) was added and continued for a total of 12-24 hours. The percent inhibition of beta-pleated sheet formation was calculated from the relative fluorescence unit increase over the 12-24 hours between aggregation in the presence and in the absence of the test compounds.

[3] = tested on: rat embryonic hippocampal primary neuronal/astrocytic cultures; test: Protection against Aβ(25-35)-induced neuronal cell loss; assay type: cell-based, Sprague Dawley rat; conditions: Neuron, 100 μM test compound, 30 μM Aβ(25-35), 96 hours treatment, morphologically viable neurons counted, read-out: reduction of Aβ(25-35)-induced neuronal cell loss compared to the controls
Experimental: Sprague Dawley rat hippocampus of 18-day-gestation embryos was excised and then dissociated by trituration to prepare primary neuronal/astrocytic cultures. Cells (3×10^5) were plated on 35 mm poly-D-lysine-coated plates containing Eagle's minimum essential medium supplemented with 10% fetal bovine serum. After 3-5 hours, the original medium was removed and replaced with 1 mL of fresh medium. Cultures were maintained at 37° C. in a 5% CO2 /95% air, humidified incubator.
To the cells (7 DIV) was added 30 μM of Aβ(25-35) dissolved in dH2 O (stored at -20° C.) and 100 μM of the test compound in 1% methylcellulose. Controls were also conducted without the test compound. The percentage of morphologically viable neurons was determined counting the number of viable neurons after 96 hours treatment compared to the number of neurons before treatment in the same premarked culture regions (three regions/culture). The number of wells was n=6 per treatment condition.

[4] = tested on: MRL/MpJfas^1pr mutant mice; test: Reduction of cognitive deficits in autoimmune mice (T-maze); assay type: in vivo, mouse; conditions: Fas^1pr mice; 100 mg/kg p.o. daily from 2 to 4 months of age (9 weeks); versus untreated mutant mice
From the text: MRL/MpJfas^1pr ("mutant mice" or "Fas^1pr ") strains of mice have been described as useful models of Lupus due to their autoimmune lymphoproliferatory pathology. In particular, the mutant mice show a cognitive deficit at approximately four months of age, which is not observed at two months of age. See, for example, Forster et al., 1988, Behav. Neural Biology, 49, 139-151.
In the experiment, wild-type ("++") and Fas^1pr strains of mice were received at 4 to 8 weeks of age (n=10-11). The compound of Example 1 above or 1% methylcellulose (100 mg/kg p.o.) was administered daily from 2 months of age to 4 months of age (a total of 9 weeks). After reaching 4 months of age, the mice were tested for cognitive ability in a T-maze. This behavioral task measures discrimination, active avoidance and acquisition skills (acquisition is the number of avoidances in the first 5 test trials).

[5] = tested on: tumor necrosis factor-α (TNFα) release, THP-1 cells; test: Reduction of LPS and β-amyloid-induced increased release of tumor necrosis factor-α in THP-1 cells (ELISA); assay type: cell-based; conditions: Homo sapiens, 100 μM test compound with LPS and Aβ(25-35), 48 hours, read-out: reduction of β-amyloid-induced increased release of tumor necrosis factor-α compared to the controls
Experimental: as §1, §2

[6] = tested on: rats injected with Aβ(25-35); test: Reduction of locomotor impairment due to Aβ-peptide injected into substantia nigra; assay type: in vivo, Sprague-Dawley rat; conditions: oral 1-10 mg/kg one hour before and three hours post 20 μg Aβ(25-35) injection; tested one week after treatment
Experimental: Male Sprague-Dawley rats (250-400 g) were given injections of 20 μg of Aβ(25-35) into their substantia nigra. Prior to the injection, the rats were fasted overnight and then each received an oral treatment of the test compound (1-10 mg/kg) dissolved in aqueous 1% methyl cellulose or the vehicle alone, one hour before and three hours post the Aβ-peptide stereotaxic injection. One week after treatment, the rats were dosed s.c. with 0.5 mg/kg apomorphine (dissolved in 0.1% vitamin C in isotonic saline) and the circling reflex was monitored using a Rotorat computerized behavioral monitoring apparatus for the time period between 15 and 30 minutes of being placed in the arena. Impairment of the animals due to Aβ-peptide was determined by measuring the number of rotations over the 15 minute period.

T1 sequence (P05067 672-711): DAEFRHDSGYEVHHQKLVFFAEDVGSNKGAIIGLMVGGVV

SMILES	inhibition at 100 µM [1] [%]	inhibition at 100 µM [2] [%]	inhibition at 10 µM (synthetic Aβ(1-40)) [%]	inhibition at 100 µM [3] [%]	acquisition in T-maze (FIG. 1) [4]	avoidance in T-maze (FIG. 2) [4]	inhibition at 100 µM [5] [%]	locomotor impairment (apomorphine-induced rotations over 15 minute period) compared to Aβ(25-35)-treated controls [6]
CCCCNC(=O)c1ccc(S(=O)(=O)[O-])o1.[Na+] [Example 1, N-n-Butyl-5-carbamoylfuran-2-sulfonic Acid Sodium Salt]	≥ 20	≥ 20	≥ 10	≥ 60	acquired avoidance skills earlier than untreated mutant mice	reduced avoidance values	≥ 20	reduced the locomotor impairment
CC(C)NC(=O)c1ccc(S(=O)(=O)O)o1 [Example 2, N-Isopropyl-5-carbamoylfuran-2-sulfonic Acid Sodium Salt]	≥ 20	≥ 20	≥ 10	≥ 60	–	–	≥ 20	–
CCCCNC(=O)C=Cc1ccc(S(=O)(=O)O)o1 [Example 5, 5-[2-(N-n-Butylcarbamoyl)eth-1-enyl]-furan-2-sulfonic Acid Sodium Salt]	≥ 20	≥ 20	–	≥ 60	–	–	≥ 20	–
CCCCNC(=O)CCc1ccc(S(=O)(=O)O)o1 [Example 6, 5-[2-(N-n-Butylcarbamoyl)ethyl]-furan-2-sulfonic Acid Sodium Salt]	≥ 20	≥ 20	≥ 10	–	–	–	≥ 20	–
